Here are results for 1 compound from patent US20240293430A1, “WITHAFERIN A AND IMMUNE CHECKPOINT BLOCKER COMBINATION THERAPIES” (University of South Florida, priority 2023, published 2024).

Assay [1] relates to PARP, BCL-XL, CHOP, p-eIF-2 in NSCLC cell lines. Description: Western blot of apoptosis and ER stress markers. The format is cell-based, mouse (LLC), human (H1650). The method, then: FIGS. 1A-lE depict that WFA induces ER stress-mediated apoptosis in NSCLC cell lines. (FIG. 1A) NSCLC cells were plated on 96-well plates and treated with different concentrations of WFA ([…]) in triplicates. Forty-eight hours post-treatment, cell viability was determined using Cell Titer-Glo assay. Luminescence values were normalized to control untreated cells and IC50 values are represented as the mean of two independent experiments ±SEM. (FIG. 1B) NSCLC cells were treated WFA for forty-eight hours, then collected to measure apoptotic cell death using Annexin V assay in LLC cells, H1650 cells, and A549 cells. Percentages of early (annexin*DAPI-) and late (annexin*DAPI+) apoptotic cells are represented as means of two separate experiments ±SEM and statistical significance was calculated using one-way ANOVA and a Fisher LSD post hoc test was used to compare the mean of each group to that of the control group. (FIGS. 1C-1D) WFA treated cells were collected in Trizol and total RNA was isolated to measure the levels of Bax (FIG. 1C) and Bcl2 (FIG. 1D) mRNA using qRT-PCR. PCR experiments were repeated at least twice, and one representative experiment is shown as mean±SEM of the technical replicates. (FIG. 1E) Western blot of ER stress markers p-eIF-2 and CHOP was performed using total lysates of WFA-treated LLC cells. The quantification of western blot band density was performed using Image J software v.1.54d and normalized to housekeeping control protein in LLC cells (0-actin). […] Data were obtained from two independent experiments.
FIGS. 7A-7I depict qRT-PCR analysis of the change in expression of pro-apoptotic and anti-apoptotic induced by WFA treatment. WFA increased the mRNA levels of proapoptotic protein Bak-1 in (FIG. 7A) LLC cells and BAD in (FIG. 7C) H1650 cells. […]
Total protein was isolated using Radioimmunoprecipitation Assay (RIPA) buffer (Thermo Fisher Scientific, Waltham, MA, USA) and sonication of cell pellets using Branson digital sonifier 450. […] Then, protein levels were quantified using a Pierce Coomassie Protein assay kit (Thermo Fisher Scientific, Waltham, MA, USA) according to the manufacturer's instruction and the absorbance values at 595 nm were measured using a plate reader (Bio Tek, Winooski, VT, USA) and used to calculate protein concentrations. […] Protein bands were detected using SuperSignal West Pico PLUS Chemiluminescent Substrate or West Femto Maximum Sensitivity Substrate (Thermo Fisher Scientific, Waltham, MA, USA) and imaged using the ChemiDoc XRS imaging system (Bio-Rad, Hercules, CA, USA) according to the manufacturer's instructions. Band density was measured using Image J software version 1.54d and was normalized to housekeeping proteins (0-actin or Vinculin). […]
On the technique in general: In western blotting, separated proteins are transferred to a membrane and probed.

Assay [2] has as its system PD-L1 upregulation in MC-38, HCT-116, 4T-1, and MDA-MB-231 cell lines. Description: PD-L1 with WFA and NAC in colorectal and breast cancer cell lines. The format is cell-based, mouse (MC-38, 4T1), human (HCT-116. The settings on record: breast cancer cell lines (4T1 1 μM, MDA-MB-231 2 μM WFA).
Assay [3] deals with PD-L1 in NRF-2 knockdown LLC or H1650 cells. Description: NRF-2 siRNA knockdown then WFA, PD-L1 by flow cytometry. To be noted: WFA 24 h after siRNA, similar to scramble controls. In kind it is cell-based, mouse (LLC), human (H1650). (A flow cytometer gives signals particle by particle.)

For `CC1=C(CO)C(=O)O[C@@H]([C@@H](C)[C@H]2CC[C@H]3[C@@H]4C[C@H]5O[C@]56[C@@H](O)C=CC(=O)[C@]6(C)[C@H]4CC[C@]23C)C1` [WFA, Withaferin A], the “levels of BCL-XL” value in assay [1] (H1650 cells) is “reduced”. Further, the PARP cleavage entry in assay [1] (LLC and H1650 cells) was “increased”. In addition, in assay [1] (LLC cells), the “levels of C/EBP homologous protein (CHOP)” value is “increases” and the “phosphorylation of eIF-2” value is “increases”. For the same compound, the PD-L1 expression result in assay [2] is “increases”. The “PD-L1 in NRF-2 knockdown cells” value in assay [3] was “still upregulated”.
